# Results reported in US20210221866A1, “PROTEASE-RESISTANT LIPIDATED GLP-1 ANALOGS” (MEDIMMUNE LIMITED, priority 2015, published 2021).
# Where two headings read alike, the source gives them in different places. Numbered stars: 1 amine (or outer) side, 2 acyl side, 3 side chain; on linkers, the order of the positions; unused ones are H or OH. Square brackets hold non-standard residues; d marks the D form. Side chains are listed from the residue outwards. Peptide text beside a SMILES is read from it. * marks the point of attachment. C18 diacid = O=C(O)CCCCCCCCCCCCCCCCC(=O)*; γGlu = O=C(O)[C@H](CCC(=O)[*:2])N[*:1]; αMeF = C[C@](N)(Cc1ccccc1)C(=O)O; αMeK = C[C@](N)(CCCCN)C(=O)O; Lauroyl = CCCCCCCCCCCC(=O)*; αMeS = C[C@](N)(CO)C(=O)O; AEEA = NCCOCCOCC(=O)O; Aib = CC(C)(N)C(=O)O
# Tests used:
# Format in all cases: cell-based
# [1] = target: T1, human GLP-1 receptor (GLP-1R) (Homo sapiens, UniProt P43220); assay: cAMP assay, human GLP-1R cells; conditions: cAMP activity
# T1 construct: expressed in transfected cells; host or cells: HEK293 cells or CHO cells
# T1 sequence (P43220 24-463): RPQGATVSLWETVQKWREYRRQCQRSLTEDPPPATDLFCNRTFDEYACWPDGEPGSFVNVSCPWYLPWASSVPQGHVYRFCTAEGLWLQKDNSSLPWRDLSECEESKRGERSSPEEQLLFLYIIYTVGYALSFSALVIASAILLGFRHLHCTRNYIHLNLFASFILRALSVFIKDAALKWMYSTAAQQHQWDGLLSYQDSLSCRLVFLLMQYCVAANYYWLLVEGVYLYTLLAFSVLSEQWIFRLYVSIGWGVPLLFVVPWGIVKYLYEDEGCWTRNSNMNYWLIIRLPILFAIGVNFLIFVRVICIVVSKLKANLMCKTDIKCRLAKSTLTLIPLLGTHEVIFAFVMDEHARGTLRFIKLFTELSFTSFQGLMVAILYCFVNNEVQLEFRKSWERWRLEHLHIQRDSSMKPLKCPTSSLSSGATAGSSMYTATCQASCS
# Method in brief: (§1)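 Peptide-stimulated cAMP measured by two-step HTRF after a 30 min room-temperature incubation with receptor-expressing cells (hGLP-1R, hGIPR at 1×10^5 cells/ml; hGCGR at 2×10^5 cells/ml). Duplicate dilutions; EC50 from 4-parameter logistic fit of % Delta F.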
# [2] = target: T2, human glucagon receptor (GCGR) (Homo sapiens, UniProt P47871); assay: cAMP assay, human GCGR cells
# T2 construct: expressed in transfected cells; host or cells: HEK293 cells or CHO cells
# T2 sequence (P47871 26-477): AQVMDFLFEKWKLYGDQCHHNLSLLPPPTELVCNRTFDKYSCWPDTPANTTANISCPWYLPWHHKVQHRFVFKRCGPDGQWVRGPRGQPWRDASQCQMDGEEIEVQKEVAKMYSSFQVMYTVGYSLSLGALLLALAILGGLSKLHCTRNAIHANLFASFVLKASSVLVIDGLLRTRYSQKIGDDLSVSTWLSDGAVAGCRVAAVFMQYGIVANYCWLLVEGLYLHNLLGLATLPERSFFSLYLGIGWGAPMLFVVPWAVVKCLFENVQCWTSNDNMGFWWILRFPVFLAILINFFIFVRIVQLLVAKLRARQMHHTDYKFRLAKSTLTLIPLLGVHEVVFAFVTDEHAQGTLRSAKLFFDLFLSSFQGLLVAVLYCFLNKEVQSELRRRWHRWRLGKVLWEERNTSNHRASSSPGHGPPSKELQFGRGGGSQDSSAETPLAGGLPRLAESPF
# Method in brief: as §1
# [3] = target: T3, human glucose-dependent insulinotropic peptide receptor (GIPR) (Homo sapiens, UniProt P48546); assay: cAMP assay, human GIPR cells
# T3 construct: expressed in transfected cells; host or cells: HEK293 cells or CHO cells
# T3 sequence (P48546 22-466): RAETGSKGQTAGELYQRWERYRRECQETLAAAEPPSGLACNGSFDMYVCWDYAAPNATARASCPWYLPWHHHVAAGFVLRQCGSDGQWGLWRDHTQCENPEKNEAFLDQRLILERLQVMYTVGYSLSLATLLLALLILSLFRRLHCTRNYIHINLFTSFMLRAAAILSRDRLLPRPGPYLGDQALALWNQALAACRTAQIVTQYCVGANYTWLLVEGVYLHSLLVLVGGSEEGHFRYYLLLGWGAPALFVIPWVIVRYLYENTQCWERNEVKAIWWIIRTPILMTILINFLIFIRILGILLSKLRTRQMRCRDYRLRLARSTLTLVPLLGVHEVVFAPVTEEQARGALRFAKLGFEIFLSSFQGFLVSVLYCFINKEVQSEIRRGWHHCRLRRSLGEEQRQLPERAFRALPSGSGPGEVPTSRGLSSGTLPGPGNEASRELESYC
# Method in brief: as §1
# GLP-1R (INS1e cells) = target: T4, GLP-1R (INS1e cells) (Rattus norvegicus, UniProt P32301); assay: INS1e assay, cAMP activity at GLP-1R
# T4 construct: endogenous in cells; host or cells: INS1e cells
# T4 sequence (P32301 22-463): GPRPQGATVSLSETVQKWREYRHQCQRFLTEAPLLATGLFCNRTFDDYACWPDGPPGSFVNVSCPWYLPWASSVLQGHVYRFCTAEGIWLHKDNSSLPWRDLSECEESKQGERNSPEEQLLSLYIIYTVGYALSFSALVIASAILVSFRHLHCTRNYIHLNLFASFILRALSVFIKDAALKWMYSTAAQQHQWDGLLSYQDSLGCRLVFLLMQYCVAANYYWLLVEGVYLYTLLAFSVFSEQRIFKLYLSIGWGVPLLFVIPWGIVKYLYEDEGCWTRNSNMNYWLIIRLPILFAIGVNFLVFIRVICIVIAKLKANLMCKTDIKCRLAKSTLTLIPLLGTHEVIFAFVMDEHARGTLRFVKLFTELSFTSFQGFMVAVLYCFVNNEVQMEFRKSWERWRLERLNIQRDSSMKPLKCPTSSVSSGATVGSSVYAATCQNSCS
# [4] = first determination (n1), read-out: Primary assay EC50 GLP-1R n1
# [5] = mean of n1 and n2, read-out: Mean pM GLP-1R
# [6] = second determination (n2), read-out: Primary assay EC50 GLP-1R n2
# [7] = cAMP activity, second determination (n2), read-out: Primary assay EC50 Gluc-R
# [8] = cAMP activity, first determination (n1), read-out: Primary assay EC50 GIP-R
# [9] = cAMP activity, second determination (n2), read-out: Primary assay EC50 GIP-R
# [10] = Table 8, substituted and mono-lipidated peptides, mean of n1 and n2, read-out: INS1e assay EC50 Mean pM GLP-1R
# [11] = Table 8, substituted and mono-lipidated peptides, replicate n1, read-out: INS1e assay EC50 GLP-1R n1
# [12] = Table 8, substituted and mono-lipidated peptides, replicate n2, read-out: INS1e assay EC50 GLP-1R n2
smiles,measurement,setting,value
CC[C@H](C)[C@H](NC(=O)[C@](C)(Cc1ccccc1)NC(=O)[C@H](CCC(=O)O)NC(=O)[C@H](CCCCNC(=O)COCCOCCNC(=O)COCCOCCNC(=O)CC[C@H](NC(=O)CCCCCCCCCCCCCCCCC(=O)O)C(=O)O)NC(=O)[C@H](C)NC(=O)[C@H](C)NC(=O)[C@H](CCC(=O)O)NC(=O)CNC(=O)[C@H](CCC(=O)O)NC(=O)[C@H](CC(C)C)NC(=O)[C@](C)(Cc1ccccc1)NC(=O)[C@H](CO)NC(=O)[C@H](CO)NC(=O)[C@@H](NC(=O)[C@H](CC(=O)O)NC(=O)[C@H](CO)NC(=O)[C@@H](NC(=O)[C@](C)(Cc1ccccc1)NC(=O)[C@H](CO)NC(=O)CNC(=O)[C@H](CCC(=O)O)NC(=O)C(C)(C)NC(=O)[C@@H](N)Cc1c[nH]cn1)[C@@H](C)O)C(C)C)C(=O)N[C@@H](C)C(=O)N[C@@](C)(Cc1ccccc1)C(=O)N[C@H](C(=O)N[C@H](C(=O)N[C@@](C)(CCCCN)C(=O)NCC(=O)NCC(N)=O)C(C)C)C(C)C [compound 46],EC50,[1]; [4],920 pM
same,EC50,[1]; [5],1560 pM
same,EC50,[1]; [6],2200 pM
same,EC50,[2]; [7],≥ 26 nM
same,EC50,[3]; [8],≥ 26 nM
same,EC50,[3]; [9],≥ 26 nM
same,EC50,GLP-1R (INS1e cells); [10],68000 pM
same,EC50,GLP-1R (INS1e cells); [11],52600 pM
same,EC50,GLP-1R (INS1e cells); [12],83400 pM
CC[C@H](C)[C@H](NC(=O)[C@](C)(Cc1ccccc1)NC(=O)[C@H](CCC(=O)O)NC(=O)[C@H](CCCCNC(=O)COCCOCCNC(=O)COCCOCCNC(=O)CC[C@H](NC(=O)CCCCCCCCCCCCCCCCC(=O)O)C(=O)O)NC(=O)[C@H](C)NC(=O)[C@H](C)NC(=O)[C@H](CCC(=O)O)NC(=O)CNC(=O)[C@H](CCC(=O)O)NC(=O)[C@H](CC(C)C)NC(=O)[C@H](Cc1ccc(O)cc1)NC(=O)[C@H](CO)NC(=O)[C@](C)(CO)NC(=O)[C@@H](NC(=O)[C@H](CC(=O)O)NC(=O)[C@H](CO)NC(=O)[C@@H](NC(=O)[C@](C)(Cc1ccccc1)NC(=O)[C@H](CO)NC(=O)CNC(=O)[C@H](CCC(=O)O)NC(=O)C(C)(C)NC(=O)[C@@H](N)Cc1c[nH]cn1)[C@@H](C)O)C(C)C)C(=O)N[C@@H](C)C(=O)N[C@@](C)(Cc1ccccc1)C(=O)N[C@H](C(=O)N[C@H](C(=O)N[C@@](C)(CCCCN)C(=O)NCC(=O)NCC(N)=O)C(C)C)C(C)C [compound 47] (H-H[Aib]EGS[αMeF]TSDV[αMeS]SYLEGEAAK([AEEA-AEEA-γGlu-C18 diacid])E[αMeF]IA[αMeF]VV[αMeK]GG-NH2; N-terminus assumed),EC50,[1]; [4],37 pM
same,EC50,[1]; [5],43.3 pM
same,EC50,[1]; [6],50 pM
same,EC50,[2]; [7],≥ 25 nM
same,EC50,[3]; [8],≥ 25 nM
same,EC50,[3]; [9],≥ 25 nM
same,EC50,GLP-1R (INS1e cells); [10],9670 pM
same,EC50,GLP-1R (INS1e cells); [11],7130 pM
same,EC50,GLP-1R (INS1e cells); [12],12200 pM
CC[C@H](C)[C@H](NC(=O)[C@](C)(Cc1ccccc1)NC(=O)[C@H](CCC(=O)O)NC(=O)[C@H](CCCCNC(=O)COCCOCCNC(=O)COCCOCCNC(=O)CC[C@H](NC(=O)CCCCCCCCCCCCCCCCC(=O)O)C(=O)O)NC(=O)[C@H](C)NC(=O)[C@H](C)NC(=O)[C@H](CCC(=O)O)NC(=O)CNC(=O)[C@H](CCC(=O)O)NC(=O)[C@H](CC(C)C)NC(=O)[C@](C)(Cc1ccccc1)NC(=O)[C@H](CO)NC(=O)[C@](C)(CO)NC(=O)[C@@H](NC(=O)[C@H](CC(=O)O)NC(=O)[C@H](CO)NC(=O)[C@@H](NC(=O)[C@](C)(Cc1ccccc1)NC(=O)[C@H](CO)NC(=O)CNC(=O)[C@H](CCC(=O)O)NC(=O)C(C)(C)NC(=O)[C@@H](N)Cc1c[nH]cn1)[C@@H](C)O)C(C)C)C(=O)N[C@@H](C)C(=O)N[C@@H](Cc1c[nH]c2ccccc12)C(=O)N[C@H](C(=O)N[C@H](C(=O)N[C@@](C)(CCCCN)C(=O)NCC(=O)NCC(N)=O)C(C)C)C(C)C [compound 49] (H-H[Aib]EGS[αMeF]TSDV[αMeS]S[αMeF]LEGEAAK([AEEA-AEEA-γGlu-C18 diacid])E[αMeF]IAWVV[αMeK]GG-NH2; N-terminus assumed),EC50,[1]; [4],96 pM
same,EC50,[1]; [5],124 pM
same,EC50,[1]; [6],150 pM
same,EC50,[2]; [7],≥ 25 nM
same,EC50,[3]; [8],≥ 25 nM
same,EC50,[3]; [9],≥ 25 nM
same,EC50,GLP-1R (INS1e cells); [10],10000 pM
same,EC50,GLP-1R (INS1e cells); [11],9350 pM
same,EC50,GLP-1R (INS1e cells); [12],10700 pM
CCCCCCCCCCCCCCCCCC(=O)NCCOCCOCC(=O)NCCOCCOCC(=O)NCCOCCOCC(=O)NCCCC[C@H](NC(=O)[C@H](C)NC(=O)[C@H](C)NC(=O)[C@H](CCC(=O)O)NC(=O)CNC(=O)[C@H](CCC(=O)O)NC(=O)[C@H](CC(C)C)NC(=O)[C@](C)(Cc1ccccc1)NC(=O)[C@H](CO)NC(=O)[C@](C)(CO)NC(=O)[C@@H](NC(=O)[C@H](CC(=O)O)NC(=O)[C@H](CO)NC(=O)[C@@H](NC(=O)[C@](C)(Cc1ccccc1)NC(=O)[C@H](CO)NC(=O)CNC(=O)[C@H](CCC(=O)O)NC(=O)C(C)(C)NC(=O)[C@@H](N)Cc1c[nH]cn1)[C@@H](C)O)C(C)C)C(=O)N[C@@H](CCC(=O)O)C(=O)N[C@@](C)(Cc1ccccc1)C(=O)N[C@H](C(=O)N[C@@H](C)C(=O)N[C@@](C)(Cc1ccccc1)C(=O)N[C@H](C(=O)N[C@H](C(=O)N[C@@H](CCCCN)C(=O)NCC(=O)NCC(N)=O)C(C)C)C(C)C)[C@@H](C)CC [compound 56],EC50,[1]; [4],2.9 pM
same,EC50,[1]; [5],3.2 pM
same,EC50,[1]; [6],3.5 pM
same,EC50,[2]; [7],≥ 26 nM
same,EC50,[3]; [8],≥ 26 nM
same,EC50,[3]; [9],≥ 26 nM
same,EC50,GLP-1R (INS1e cells); [10],56 pM
same,EC50,GLP-1R (INS1e cells); [11],35.2 pM
same,EC50,GLP-1R (INS1e cells); [12],77 pM
CCCCCCCCCCCC(=O)N[C@@H](CCC(=O)NCCOCCOCC(=O)NCCOCCOCC(=O)NCCCC[C@H](NC(=O)[C@H](CC(=O)O)NC(=O)[C@H](CO)NC(=O)[C@@H](NC(=O)[C@](C)(Cc1ccccc1)NC(=O)[C@H](CO)NC(=O)CNC(=O)[C@H](CCC(=O)O)NC(=O)C(C)(C)NC(=O)[C@@H](N)Cc1c[nH]cn1)[C@@H](C)O)C(=O)N[C@@H](CO)C(=O)N[C@@H](CO)C(=O)N[C@@H](Cc1ccc(O)cc1)C(=O)N[C@@H](CC(C)C)C(=O)N[C@@H](CCC(=O)O)C(=O)NCC(=O)N[C@@H](CCC(=O)O)C(=O)N[C@@H](C)C(=O)N[C@@H](C)C(=O)N[C@@](C)(CCCCN)C(=O)N[C@@H](CCC(=O)O)C(=O)N[C@@H](Cc1ccccc1)C(=O)N[C@H](C(=O)N[C@@H](CCCCNC(=O)COCCOCCNC(=O)COCCOCCNC(=O)CC[C@H](NC(=O)CCCCCCCCCCC)C(=O)O)C(=O)N[C@@H](Cc1c[nH]c2ccccc12)C(=O)N[C@H](C(=O)N[C@H](C(=O)N[C@@H](CCC(=O)O)C(=O)NCC(=O)NCC(N)=O)C(C)C)C(C)C)[C@@H](C)CC)C(=O)O [compound 256] (H-H[Aib]EGS[αMeF]TSDK([AEEA-AEEA-γGlu-Lauroyl])SSYLEGEAA[αMeK]EFIK([AEEA-AEEA-γGlu-Lauroyl])WVVEGG-NH2; N-terminus assumed),EC50,"[2]; Table 9, bis-lipidated peptides, first replicate, read-out: Primary assay EC50 Gluc-R (n1)",≥ 22.2 nM
same,EC50,"[2]; Table 9, bis-lipidated peptides, second replicate, read-out: Primary assay EC50 Gluc-R (n2)",≥ 22.2 nM
same,EC50,"[3]; Table 9, bis-lipidated peptides, first replicate, read-out: Primary assay EC50 GIP-R (n1)",≥ 22.2 nM
same,EC50,"[3]; Table 9, bis-lipidated peptides, second replicate, read-out: Primary assay EC50 GIP-R (n2)",≥ 22.2 nM
same,EC50,"GLP-1R (INS1e cells); Table 10, bis-lipidated peptides, mean of n1 and n2, read-out: INS1e assay EC50 Mean pM GLP-1R",1300 pM
